What follows are compounds tested against unphosphorylated-BTK kinase domain (UP-BTK), GST-tagged human BTK (389-659aa) (Homo sapiens (Human), UniProt Q06187) (assay: BTK Kinase Lanthascreen Binding Assay). Conditions: compound, 50 nM Tracer 236, 2 nM anti-GST antibody, 60 minutes; pIC50 = negative log of the IC50 in molar.
Method: BTK Kinase Lanthascreen Binding Assay:
A BTK kinase lanthascreen binding assay monitors compound binding to unphosphorylated-BTK kinase domain (UP-BTK), by competing with a fluorescent labeled tracer. […] Data were analyzed using Xlfit™ version 5.3 from ID Business Solutions (Guildford), Microsoft Excel add-in. pIC50 refers to the negative log of the IC50 in molar.

Sequence of unphosphorylated-BTK kinase domain (UP-BTK), GST-tagged human BTK (389-659aa) (Q06187 389-659): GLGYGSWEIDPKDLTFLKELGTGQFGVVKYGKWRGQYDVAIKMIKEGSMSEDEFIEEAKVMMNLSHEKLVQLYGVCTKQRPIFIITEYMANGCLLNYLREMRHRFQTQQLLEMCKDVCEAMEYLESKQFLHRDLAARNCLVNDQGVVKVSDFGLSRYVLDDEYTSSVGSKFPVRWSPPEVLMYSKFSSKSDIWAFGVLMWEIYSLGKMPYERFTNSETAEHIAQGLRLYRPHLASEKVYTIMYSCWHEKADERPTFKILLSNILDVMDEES

BTK_I_binding pIC50 | SMILES
7.87 | CCC(=O)N[C@@H]1CC[C@H](NC(=O)c2sc3nccc4c3c2NC(=O)N4c2ccc(Oc3ccccc3)cc2C)C1 (single isomer, unassigned) [Example 87, 5-(*S)-(2-Methyl-4-phenoxyphenyl)-4-oxo-N-((1S,3R)-3-propionamidocyclopentyl)-4,5-dihydro-3H-1-thia-3,5,8-triazaacenaphthylene-2-carboxamide]
6.91 | CCC(=O)N[C@H]1CC[C@@H](NC(=O)c2sc3nccc4c3c2NC(=O)N4c2ccc(Oc3ccccc3)cc2C)CC1 (single isomer, unassigned) [Example 92, 5-(*S)-(2-Methyl-4-phenoxyphenyl)-4-oxo-N-((1S,4S)-4-propionamidocyclohexyl)-4,5-dihydro-3H-1-thia-3,5,8-triazaacenaphthylene-2-carboxamide]
6.99 | CCC(=O)N[C@H]1CC[C@@H](NC(=O)c2sc3nccc4c3c2NC(=O)N4c2ccc(Oc3ccccc3)cc2C)CC1 (single isomer, unassigned) [Example 93, 5-(*R)-(2-Methyl-4-phenoxyphenyl)-4-oxo-N-((1S,4S)-4-propionamidocyclohexyl)-4,5-dihydro-3H-1-thia-3,5,8-triazaacenaphthylene-2-carboxamide]
7.59 | CC(=O)N[C@H]1CC[C@@H](NC(=O)c2sc3nccc4c3c2NC(=O)N4c2ccc(Oc3ccccc3)cc2C)CC1 (single isomer, unassigned) [Example 94, N-((1S,4S)-4-Acetamidocyclohexyl)-5-(*S)-(2-methyl-4-phenoxyphenyl)-4-oxo-4,5-dihydro-3H-1-thia-3,5,8-triazaacenaphthylene-2-carboxamide]
6.14 | CC(=O)N[C@H]1CC[C@@H](NC(=O)c2sc3nccc4c3c2NC(=O)N4c2ccc(Oc3ccccc3)cc2C)CC1 (single isomer, unassigned) [Example 95, N-((1S,4S)-4-Acetamidocyclohexyl)-5-(*R)-(2-methyl-4-phenoxyphenyl)-4-oxo-4,5-dihydro-3H-1-thia-3,5,8-triazaacenaphthylene-2-carboxamide]
7.95 | C=CC(=O)N[C@@H]1CC[C@H](NC(=O)c2sc3nccc4c3c2NC(=O)N4c2ccc(Oc3ccccc3)cc2C)C1 (single isomer, unassigned) [Example 101, N-((1S,3R)-3-Acrylamidocyclopentyl)-5-(*S)-(2-methyl-4-phenoxyphenyl)-4-oxo-4,5-dihydro-3H-1-thia-3,5,8-triazaacenaphthylene-2-carboxamide]
7.50 | Cc1cc(Oc2ccccc2)ccc1N1C(=O)Nc2c(C(=O)N[C@H]3CC[C@@H](NC(=O)CN(C)C)C3)sc3nccc1c23 (single isomer, unassigned) [Example 102, N-((1S,3R)-3-(2-(dimethylamino)acetamido)cyclopentyl)-5-(*S)-(2-methyl-4-phenoxyphenyl)-4-oxo-4,5-dihydro-3H-1-thia-3,5,8-triazaacenaphthylene-2-carboxamide]
7.40 | CNCC(=O)N[C@@H]1CC[C@H](NC(=O)c2sc3nccc4c3c2NC(=O)N4c2ccc(Oc3ccccc3)cc2C)C1 (single isomer, unassigned) [Example 103, 5-(*S)-(2-Methyl-4-phenoxyphenyl)-N-((1S,3R)-3-(2-(methylamino)acetamido)cyclopentyl)-4-oxo-4,5-dihydro-3H-1-thia-3,5,8-triazaacenaphthylene-2-carboxamide]
8.11 | C=CC(=O)N[C@@H]1CCC[C@H]1NC(=O)c1sc2nccc3c2c1NC(=O)N3c1ccc(Oc2ccccc2)cc1C (single isomer, unassigned) [Example 105, N-((1R,2R)-2-Acrylamidocyclopentyl)-5-(*S)-(2-methyl-4-phenoxyphenyl)-4-oxo-4,5-dihydro-3H-1-thia-3,5,8-triazaacenaphthylene-2-carboxamide]
8.25 | C=CC(=O)N[C@H]1CCC[C@H]1NC(=O)c1sc2nccc3c2c1NC(=O)N3c1ccc(Oc2ccccc2)cc1C (single isomer, unassigned) [Example 107, N-((1R,2S)-2-Acrylamidocyclopentyl)-5-(*S)-(2-methyl-4-phenoxyphenyl)-4-oxo-4,5-dihydro-3H-1-thia-3,5,8-triazaacenaphthylene-2-carboxamide]
7.56 | C=CC(=O)N[C@H]1CCCC[C@H]1NC(=O)c1sc2nccc3c2c1NC(=O)N3c1ccc(Oc2ccccc2)cc1C (single isomer, unassigned) [Example 108, N-((1R,2S)-2-Acrylamidocyclohexyl)-5-(*S)-(2-methyl-4-phenoxyphenyl)-4-oxo-4,5-dihydro-3H-1-thia-3,5,8-triazaacenaphthylene-2-carboxamide]
7.68 | Cc1cc(Oc2ccccc2)ccc1N1C(=O)Nc2c(C(=O)N[C@@H]3CCC[C@H]3NC(=O)CN(C)C)sc3nccc1c23 (single isomer, unassigned) [Example 111, N-((1R,2R)-2-(2-(Dimethylamino)acetamido)cyclopentyl)-5-(*S)-(2-methyl-4-phenoxyphenyl)-4-oxo-4,5-dihydro-3H-1-thia-3,5,8-triazaacenaphthylene-2-carboxamide]
8.04 | CNCC(=O)N[C@@H]1CCC[C@H]1NC(=O)c1sc2nccc3c2c1NC(=O)N3c1ccc(Oc2ccccc2)cc1C (single isomer, unassigned) [Example 112, 5-(*S)-(2-Methyl-4-phenoxyphenyl)-N-((1R,2R)-2-(2-(methylamino)acetamido)cyclopentyl)-4-oxo-4,5-dihydro-3H-1-thia-3,5,8-triazaacenaphthylene-2-carboxamide]
7.88 | Cc1cc(Oc2ccccc2)ccc1N1C(=O)Nc2c(C(=O)N[C@@H]3CCC[C@H]3NC(=O)CN)sc3nccc1c23 (single isomer, unassigned) [Example 113, N-((1R,2R)-2-(2-Aminoacetamido)cyclopentyl)-5-(*S)-(2-methyl-4-phenoxyphenyl)-4-oxo-4,5-dihydro-3H-1-thia-3,5,8-triazaacenaphthylene-2-carboxamide]
6.81 | C=CC(=O)N[C@@H]1CCC[C@@H]1NC(=O)c1sc2nccc3c2c1NC(=O)N3c1ccc(Oc2ccccc2)cc1C (single isomer, unassigned) [Example 114, N-((1S,2R)-2-Acrylamidocyclopentyl)-5-(*S)-(2-methyl-4-phenoxyphenyl)-4-oxo-4,5-dihydro-3H-1-thia-3,5,8-triazaacenaphthylene-2-carboxamide]
7.57 | Cc1cc(Oc2ccccc2)ccc1N1C(=O)Nc2c(C(=O)N[C@@H]3CCC[C@@H]3N)sc3nccc1c23 (single isomer, unassigned) [Example 115, N-((1R,2S)-2-Aminocyclopentyl)-5-(*S)-(2-methyl-4-phenoxyphenyl)-4-oxo-4,5-dihydro-3H-1-thia-3,5,8-triazaacenaphthylene-2-carboxamide]
7.30 | C=CC(=O)N[C@H]1CCC[C@@H]1NC(=O)c1sc2nccc3c2c1NC(=O)N3c1ccc(Oc2ccccc2)cc1C (single isomer, unassigned) [Example 116, N-((1S,2S)-2-Acrylamidocyclopentyl)-5-(*S)-(2-methyl-4-phenoxyphenyl)-4-oxo-4,5-dihydro-3H-1-thia-3,5,8-triazaacenaphthylene-2-carboxamide]
7.54 | Cc1cc(Oc2ccccc2)ccc1N1C(=O)Nc2c(C(=O)N[C@@H]3CCC[C@H]3N)sc3nccc1c23 (single isomer, unassigned) [Example 120, N-((1R,2R)-2-Aminocyclopentyl)-5-(*S)-(2-methyl-4-phenoxyphenyl)-4-oxo-4,5-dihydro-3H-1-thia-3,5,8-triazaacenaphthylene-2-carboxamide]
7.18 | CNCC(=O)N[C@H]1CCC[C@H]1NC(=O)c1sc2nccc3c2c1NC(=O)N3c1ccc(Oc2ccccc2)cc1C (single isomer, unassigned) [Example 122, 5-(*S)-(2-Methyl-4-phenoxyphenyl)-N-((1R,2S)-2-(2-(methylamino)acetamido)cyclopentyl)-4-oxo-4,5-dihydro-3H-1-thia-3,5,8-triazaacenaphthylene-2-carboxamide]
7.07 | Cc1cc(Oc2ccccc2)ccc1N1C(=O)Nc2c(C(=O)N[C@H]3CCC[C@@H]3NC(=O)CN(C)C)sc3nccc1c23 (single isomer, unassigned) [Example 123, N-((1S,2S)-2-(2-(Dimethylamino)acetamido)cyclopentyl)-5-(*S)-(2-methyl-4-phenoxyphenyl)-4-oxo-4,5-dihydro-3H-1-thia-3,5,8-triazaacenaphthylene-2-carboxamide]
7.11 | CNCC(=O)N[C@H]1CCCC[C@H]1NC(=O)c1sc2nccc3c2c1NC(=O)N3c1ccc(Oc2ccccc2)cc1C (single isomer, unassigned) [Example 125, 5-(*S)-(2-Methyl-4-phenoxyphenyl)-N-((1R,2S)-2-(2-(methylamino)acetamido)cyclohexyl)-4-oxo-4,5-dihydro-3H-1-thia-3,5,8-triazaacenaphthylene-2-carboxamide]
7.10 | Cc1cc(Oc2ccccc2)ccc1N1C(=O)Nc2c(C(=O)N[C@@H]3CCC[C@@H]3NC(=O)CN(C)C)sc3nccc1c23 (single isomer, unassigned) [Example 128, N-((1R,2S)-2-(2-(Dimethylamino)acetamido)cyclopentyl)-5-(*S)-(2-methyl-4-phenoxyphenyl)-4-oxo-4,5-dihydro-3H-1-thia-3,5,8-triazaacenaphthylene-2-carboxamide]
7.39 | Cc1cc(Oc2ccccc2)ccc1N1C(=O)Nc2c(C(=O)N[C@@H]3CCCC[C@@H]3NC(=O)CN)sc3nccc1c23 (single isomer, unassigned) [Example 129, N-((1R,2S)-2-(2-Aminoacetamido)cyclohexyl)-5-(*S)-(2-methyl-4-phenoxyphenyl)-4-oxo-4,5-dihydro-3H-1-thia-3,5,8-triazaacenaphthylene-2-carboxamide]
